Read-outs that look alike come from different tables or passages of the source.
Legend:
Format in all cases: cell-based
[1] = tested on: Botrytis cinerea; test: Fungicidal action against Botrytis cinerea (gray mould), microtiter growth inhibition
Experimental: Example B2: Fungicidal Action Against Botrytis cinerea (Gray Mould)
(§1) Conidia of the fungus from cryogenic storage are directly mixed into nutrient broth (PDB potato dextrose broth). After placing a (DMSO) solution of the test compounds into a microtiter plate (96-well format) the nutrient broth containing the fungal spores is added. The test plates are incubated at 24° C. and the inhibition of growth is evaluated after 4 days. The expected fungicidal action is calculated according to the Colby method.

[2] = tested on: Alternaria solani; test: Fungicidal action against Alternaria solani (early blight tomato/potato), microtiter growth inhibition
Experimental: Example B4: Fungicidal Action Against Alternaria solani (Early Blight Tomato/Potato)
as §1, with “after 3” for “after 4”

[3] = tested on: Pseudocercosporella herpotrichoides (syn. Tapesia yallundae); test: Fungicidal action against Pseudocercosporella herpotrichoides (eye spot of cereals), microtiter growth inhibition
Experimental: Example B5: Funicidal Action Against Pseudocercosporella herpotrichoides (Syn. Tapesia yallundae), Eye Spot of Cereals
as §1

[4] = tested on: Pyrenophora teres; test: Fungicidal action against Pyrenophora teres (net blotch), microtiter growth inhibition; conditions: for inhibition at 0.0625 ppm / inhibition at 0.125 ppm / inhibition at 0.5 ppm / inhibition at 1 ppm: read-out: % activity; for % activity: alone
Experimental: Example B6: Fungicidal Action Against Pyrenophora teres (Net Blotch)
as §1

[5] = tested on: Septoria tritici; test: Fungicidal action against Septoria tritici (leaf blotch), microtiter growth inhibition; conditions: for % activity: alone
Experimental: Example B3: Fungicidal Action Against Septoria tritici (Leaf Blotch)
as §1

[6] = tested on: Gaeumannomyces graminis; test: Fungicidal action against Gaeumannomyces graminis (take-all of cereals), microtiter growth inhibition; conditions: Gaeumannomyces graminis
Experimental: Example B7: Fungicidal Action Against Gaeumannomyces graminis (Take-all of Cereals)
as §1, with “Mycelial fragments” for “Conidia”, “24 C” for “24° C.”, “days.” for “days. The expected fungicidal action is calculated according to the Colby method.”

[7] = tested on: Cercospora arachidicola (syn. Mycosphaerella arachidis); test: Fungicidal action against Cercospora arachidicola (brown leaf spot of groundnut), microtiter growth inhibition; conditions: Mycosphaerella arachidis
Experimental: Example B8: Fungicidal Action Against Cercospora arachidicola (Syn. Mycosphaerella arachidis), Brown Leaf Spot of Groundnut (Peanut)
as §1, with “24 C” for “24° C.”, “7” for “4”, “days.” for “days. The expected fungicidal action is calculated according to the Colby method.”

[8] = Pyrenophora teres, compound alone
[9] = Botrytis cinerea, read-out: % activity
[10] = Zymoseptoria tritici, read-out: % activity
[11] = Oculimacula yallundae, read-out: % activity
[12] = compound alone, 0.0625 ppm, read-out: % activity

Compound: CC(Cc1ccc(C(C)(C)C)cc1)CN1CCCCC1 (centres unmarked) [Fenpropidin, fenpropidin]
- inhibition at 0.5 ppm ([1]; Botrytis cinerea, 0.5000 ppm, alone): 0%
- inhibition at 1 ppm ([1]; Botrytis cinerea, 1.0000 ppm, alone): 0%
- inhibition at 2 ppm ([1]; Botrytis cinerea, 2.0000 ppm, alone): 0%
- inhibition at 0.125 ppm ([2]; Alternaria solani, 0.1250 ppm, alone): 0%
- inhibition at 0.25 ppm ([2]; Alternaria solani, 0.2500 ppm, alone, read-out: % activity): 0%
- inhibition at 0.5 ppm ([2]; Alternaria solani, 0.5000 ppm, alone, read-out: % activity): 0%
- inhibition at 1 ppm ([2]; Alternaria solani, 1.0000 ppm, alone): 0%
- inhibition at 0.0156 ppm ([3]; Oculimacula yallundae, 0.0156 ppm, alone, read-out: % activity): 0%
- inhibition at 0.0313 ppm ([3]; Oculimacula yallundae, 0.0313 ppm, alone): 0%
- inhibition at 0.0625 ppm ([3]; Oculimacula yallundae, 0.0625 ppm, alone): 0%
- inhibition at 0.125 ppm ([3]; Oculimacula yallundae, 0.1250 ppm, alone): 0%
- inhibition at 0.25 ppm ([3]; Oculimacula yallundae, 0.2500 ppm, alone, read-out: % activity): 0%
- inhibition at 0.0625 ppm ([4]; Pyrenophora teres, compound alone, 0.0625 ppm): 0%
- inhibition at 0.125 ppm ([4]; Pyrenophora teres, compound alone, 0.1250 ppm): 0%
- inhibition at 0.25 ppm ([4]; Pyrenophora teres, compound alone, 0.2500 ppm): 0%
- inhibition at 0.5 ppm ([4]; Pyrenophora teres, compound alone, 0.5000 ppm): 0%
- inhibition at 2 ppm [4, 8]: 0%

Compound: N#Cc1c[nH]cc1-c1cccc2c1OC(F)(F)O2 [Fludioxonil, fludioxonil]
- inhibition at 0.0313 ppm [1, 9]: 0%
- inhibition at 0.0625 ppm [1, 9]: 20%
- inhibition at 0.125 ppm [1, 9]: 90%
- inhibition at 0.0625 ppm [5, 10]: 0%
- inhibition at 0.125 ppm [5, 10]: 0%
- inhibition at 0.0078 ppm ([2]; Alternaria solani, read-out: % activity, 0.0078 ppm, alone): 0%
- inhibition at 0.0156 ppm ([2]; Alternaria solani, read-out: % activity, 0.0156 ppm, alone): 0%
- inhibition at 0.0313 ppm ([2]; Alternaria solani, read-out: % activity, 0.0313 ppm, alone): 0%
- inhibition at 0.0625 ppm ([2]; Alternaria solani, read-out: % activity, 0.0625 ppm, alone): 20%
- inhibition at 0.25 ppm ([2]; Alternaria solani, read-out: % activity, 0.2500 ppm, alone): 50%
- inhibition at 0.5 ppm ([2]; Alternaria solani, read-out: % activity, 0.5000 ppm, alone): 70%
- inhibition at 0.0078 ppm [3, 11]: 0%
- inhibition at 0.0156 ppm [3, 11]: 0%
- inhibition at 0.25 ppm [3, 11]: 20%
- inhibition at 0.5 ppm [3, 11]: 20%
- inhibition at 1 ppm [3, 11]: 20%
- inhibition at 2 ppm [3, 11]: 20%
- inhibition at 0.0625 ppm ([4]; Pyrenophora teres): 20%
- inhibition at 0.125 ppm ([4]; Pyrenophora teres): 70%

Compound: C#CCOc1ccc(CCNC(=O)C(OCC#C)c2ccc(Cl)cc2)cc1OC (centres unmarked) [Mandipropamid, mandipropamid]
- inhibition at 0.125 ppm [5, 10]: 0%
- inhibition at 0.25 ppm [5, 10]: 0%
- inhibition at 0.5 ppm [5, 10]: 0%
- inhibition at 0.5 ppm ([4]; Pyrenophora teres): 0%
- inhibition at 1 ppm ([4]; Pyrenophora teres): 0%
- inhibition at 0.0039 ppm ([6]; read-out: % activity): 0%
- inhibition at 0.0078 ppm ([6]; read-out: % activity): 0%
- inhibition at 0.0313 ppm ([6]; read-out: % activity): 0%
- inhibition at 0.0625 ppm ([6]; read-out: % activity): 0%
- inhibition at 0.0039 ppm ([7]; read-out: % activity): 0%
- inhibition at 0.0078 ppm ([7]; read-out: % activity): 0%

Compound: CO/C=C(/C(=O)OC)c1ccccc1COc1cccc(C(F)(F)F)n1 [Picoxystrobin, picoxystrobin]
- % activity ([1]; 0.0625 ppm, alone): 0%
- % activity ([1]; 0.1250 ppm, alone): 0%
- % activity ([1]; 0.2500 ppm, alone): 0%
- % activity ([1]; 0.5000 ppm, alone): 0%
- % activity ([1]; 1.0000 ppm, alone): 0%
- % activity ([1]; 2.0000 ppm, alone): 0%
- % activity ([5]; 0.0156 ppm): 20%
- % activity ([5]; 0.0313 ppm): 70%
- % activity ([2]; 0.0078 ppm, alone): 0%
- % activity ([2]; 0.0156 ppm, alone): 20%
- % activity ([2]; 0.0313 ppm, alone): 20%
- % activity ([2]; 0.0625 ppm, alone): 50%
- % activity ([2]; 0.1250 ppm, alone): 50%
- % activity ([2]; 0.2500 ppm, alone): 50%
- % activity ([2]; 0.5000 ppm, alone): 50%
- % activity ([2]; 2.0000 ppm, alone): 50%
- % activity ([3]; 0.0078 ppm, alone): 0%
- % activity ([3]; 0.0156 ppm, alone): 20%
- % activity ([3]; 0.0313 ppm, alone): 50%
- % activity ([3]; 0.0625 ppm, alone): 50%
- % activity ([3]; 0.1250 ppm, alone): 50%
- % activity ([3]; 0.2500 ppm, alone): 50%
- % activity ([3]; 0.5000 ppm, alone): 50%
- % activity ([3]; 1.0000 ppm, alone): 70%
- % activity ([4]; 0.0313 ppm): 50%
- % activity ([4]; 0.0625 ppm): 70%

Compound: CCCC1COC(Cn2cncn2)(c2ccc(Cl)cc2Cl)O1 (centres unmarked) [Propiconazole]
- inhibition at 1 ppm ([4]; Pyrenophora teres, compound alone, 1.0000 ppm): 20%
- inhibition at 2 ppm [4, 8]: 50%
- inhibition at 0.0039 ppm ([6]; compound alone, 0.0039 ppm, read-out: % activity): 0%
- inhibition at 0.0078 ppm ([6]; compound alone, 0.0078 ppm, read-out: % activity): 0%
- inhibition at 0.0625 ppm [6, 12]: 0%
- inhibition at 0.0313 ppm ([7]; compound alone, 0.0313 ppm): 20%
- inhibition at 0.0625 ppm ([7]; compound alone): 70%
- inhibition at 0.125 ppm ([7]; compound alone, 0.1250 ppm): 90%

Compound: OC(Cc1ccccc1Cl)(Cn1nc[nH]c1=S)C1(Cl)CC1 (centres unmarked) [Prothioconazole]
- inhibition at 0.0625 ppm [6, 12]: 50%
- inhibition at 0.25 ppm ([6]; compound alone, 0.2500 ppm): 90%
- inhibition at 0.5 ppm ([6]; compound alone, 0.5000 ppm): 90%
- inhibition at 0.0625 ppm ([7]; compound alone): 70%

Compound: CC(C)(C)C(O)(CCc1ccc(Cl)cc1)Cn1cncn1 (centres unmarked) [Tebuconazole]
- inhibition at 0.125 ppm ([6]; compound alone, 0.1250 ppm): 50%

— patent US10143201B2, “Fungicidal compositions” (Syngenta Crop Protection LLC, priority 2007, dated 2018)
